Data: patent US11945816B2, “Inhibitors of EGFR and/or HER2 and methods of use” (Dana-Farber Cancer Institute, Inc., priority 2017, dated 2024)

Key:
Type in all cases: cell-based
[1] = molecular target: T1, HER2 InsVC (G776delinsVC) transformed Ba/F3 cells (Homo sapiens, UniProt P04626, G776C/INS775V); assay: Proliferation inhibition assay, HER2 InsVC transformed Ba/F3 cells; details: MTS assay, 72 hours, Table 9 key
T1 construct: expressed in transfected cells; host or cells: Ba/F3
Description: (§1) Cell growth inhibition can be assessed by MTS assay or by Cell Titer Glo Luminescent Cell viability assay (Promega®). Cells are seeded and grow in culture plates before they are exposed to representative compounds of the application for various duration. The viability of the cells are then assessed. […] The growth curves can be fitted using a nonlinear regression model with sigmoidal dose response.
(§2) Cell growth inhibition was assessed by MTS assay for Ba/F3, DFCI58-229, and DFCI127c cells, or by Cell Titer Glo Luminescent Cell viability assay (Promega®) for DFC1362JC cells, 3000 Ba/F3 cells were seeded for per well in 96-well plates, and were exposed to representative compounds of the application (3.3 nM to 10 μM) for 72 hours. For DFCI58-229, DFCI127c, and DFC1362JC cells, 5000 cells were seeded per well. All experimental points included 6 to 12 wells. […] The growth curves were fitted using a nonlinear regression model with sigmoidal dose response.
(§3) Activities of representative compounds of the present application in inhibiting EGFR and HER2 were tested by MTS assay (for Ba/F3 cell, DFCI58-229 cell, and DFCI127c cells) or by CellTiter-Glot luminescent cell viability assay (for DFCI362JC cells). For assays with Ba/F3 cells, 3000 cells were seeded for per well in 96-well plates and were exposed to indicated compounds with a concentration of 3.3 to 10 μM for 72 hours. For assays with DFCI58-229 cell, DFCI127c cell, or DFCI362JC cell, 5000 cells were seeded per well in 96-well plates and were exposed to indicated compounds with a concentration of 3.3 to 10 μM for 72 hours.

[2] = molecular target: T2, HER2 InsWLV transformed Ba/F3 cells (Homo sapiens, UniProt P04626, INS773WL/M774V); assay: Proliferation inhibition assay, HER2 InsWLV transformed Ba/F3 cells; details: MTS assay, 72 hours
T2 construct: expressed in transfected cells; host or cells: Ba/F3
Description: as §1, §2, §3

[3] = molecular target: T3, EGFR InsH transformed Ba/F3 cells (Homo sapiens, UniProt P00533, DUP773-773); assay: Proliferation inhibition assay, EGFR InsH transformed Ba/F3 cells; details: MTS assay, 72 hours
T3 construct: expressed in transfected cells; host or cells: Ba/F3
Description: as §1, §2, §3

[4] = molecular target: T4, wild-type HER2 transformed Ba/F3 cells (Homo sapiens, UniProt P04626); assay: Proliferation inhibition assay, wild-type HER2 transformed Ba/F3 cells; details: MTS assay, 72 hours
T4 construct: expressed in transfected cells; host or cells: Ba/F3
Description: as §1, §2, §3

[5] = molecular target: T5, EGFR InsNPG (D770_N771insNPG) transformed Ba/F3 cells (Homo sapiens, UniProt P00533, INS770NPG); assay: Proliferation inhibition assay, EGFR InsNPG transformed Ba/F3 cells; details: MTS assay, 72 hours
T5 construct: expressed in transfected cells; host or cells: Ba/F3
Description: as §1, §2, §3

[6] = molecular target: T6, EGFR InsGY (D770delinsGY) transformed Ba/F3 cells (Homo sapiens, UniProt P00533, D770Y/INS769G); assay: Proliferation inhibition assay, EGFR InsGY transformed Ba/F3 cells; details: MTS assay, 72 hours
T6 construct: expressed in transfected cells; host or cells: Ba/F3
Description: as §1, §2, §3

[7] = molecular target: T7, HER2 InsYVMA (A775_G776insYVMA) transformed Ba/F3 cells (Homo sapiens, UniProt P04626, INS775YVMA); assay: Proliferation inhibition assay, HER2 InsYVMA transformed Ba/F3 cells; details: MTS assay, 72 hours
T7 construct: expressed in transfected cells; host or cells: Ba/F3
Description: as §1, §2, §3

[8] = molecular target: T8, EGFR InsSVD (D770_N771insSVD) transformed Ba/F3 cells (Homo sapiens, UniProt P00533, INS770SVD); assay: Proliferation inhibition assay, EGFR InsSVD transformed Ba/F3 cells; details: MTS assay, 72 hours
T8 construct: expressed in transfected cells; host or cells: Ba/F3
Description: as §1, §2, §3

[9] = molecular target: T9, EGFR InsHH (Y764_V765insHH) transformed Ba/F3 cells (Homo sapiens, UniProt P00533, INS764HH); assay: Proliferation inhibition assay, EGFR InsHH transformed Ba/F3 cells; details: MTS assay, 72 hours
T9 construct: expressed in transfected cells; host or cells: Ba/F3
Description: as §1, §2, §3

[10] = molecular target: T10, EGFR InsASV (V769_D770insASV) transformed Ba/F3 cells (Homo sapiens, UniProt P00533, INS769ASV); assay: Proliferation inhibition assay, EGFR InsASV transformed Ba/F3 cells; details: MTS assay, 72 hours
T10 construct: expressed in transfected cells; host or cells: Ba/F3
Description: as §1, §2, §3

[11] = molecular target: T11, wild-type EGFR transformed Ba/F3 cells (Homo sapiens, UniProt P00533); assay: Proliferation inhibition assay, wild-type EGFR transformed Ba/F3 cells; details: MTS assay, 72 hours
T11 construct: expressed in transfected cells; host or cells: Ba/F3
Description: as §1, §2, §3

[12] = molecular target: T12, HER2 InsGSP (P780_Y781insGSP) transformed Ba/F3 cells (Homo sapiens, UniProt P04626, INS780GSP); assay: Proliferation inhibition assay, HER2 InsGSP transformed Ba/F3 cells; details: MTS assay, 72 hours, Table 9 key
T12 construct: expressed in transfected cells; host or cells: Ba/F3
Description: as §1, §2, §3

T1 sequence (P04626 with tags, fused parts or gaps INS775V/G776C): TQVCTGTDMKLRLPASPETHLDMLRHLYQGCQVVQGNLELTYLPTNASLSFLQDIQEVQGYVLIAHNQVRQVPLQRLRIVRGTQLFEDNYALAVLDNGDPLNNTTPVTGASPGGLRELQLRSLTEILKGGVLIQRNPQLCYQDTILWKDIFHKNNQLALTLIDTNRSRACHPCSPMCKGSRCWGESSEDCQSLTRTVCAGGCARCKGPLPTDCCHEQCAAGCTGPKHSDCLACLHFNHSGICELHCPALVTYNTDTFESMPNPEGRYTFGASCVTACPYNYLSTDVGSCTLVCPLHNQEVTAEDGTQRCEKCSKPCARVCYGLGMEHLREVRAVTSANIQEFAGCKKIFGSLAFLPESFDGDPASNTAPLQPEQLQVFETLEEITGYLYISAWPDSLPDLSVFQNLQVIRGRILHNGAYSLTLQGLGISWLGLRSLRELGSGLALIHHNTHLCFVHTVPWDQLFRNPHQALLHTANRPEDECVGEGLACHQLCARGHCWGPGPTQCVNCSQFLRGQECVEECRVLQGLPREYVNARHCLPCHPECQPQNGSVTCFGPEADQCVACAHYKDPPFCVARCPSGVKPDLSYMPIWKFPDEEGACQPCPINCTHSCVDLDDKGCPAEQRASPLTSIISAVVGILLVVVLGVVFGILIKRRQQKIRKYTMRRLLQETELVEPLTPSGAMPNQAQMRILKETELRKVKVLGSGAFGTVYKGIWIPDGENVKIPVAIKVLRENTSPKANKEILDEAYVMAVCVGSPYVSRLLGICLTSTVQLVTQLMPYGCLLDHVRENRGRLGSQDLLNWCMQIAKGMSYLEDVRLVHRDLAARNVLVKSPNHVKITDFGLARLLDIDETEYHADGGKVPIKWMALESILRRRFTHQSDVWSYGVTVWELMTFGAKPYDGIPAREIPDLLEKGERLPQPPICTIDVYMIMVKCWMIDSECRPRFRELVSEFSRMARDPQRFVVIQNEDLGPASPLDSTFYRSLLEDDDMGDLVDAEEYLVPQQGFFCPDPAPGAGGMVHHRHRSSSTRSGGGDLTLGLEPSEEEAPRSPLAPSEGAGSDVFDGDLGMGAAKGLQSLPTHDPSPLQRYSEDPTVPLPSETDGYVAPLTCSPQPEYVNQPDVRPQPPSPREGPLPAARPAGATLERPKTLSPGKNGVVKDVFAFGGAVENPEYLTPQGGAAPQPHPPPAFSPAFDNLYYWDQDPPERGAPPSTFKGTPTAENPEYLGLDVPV
T4 sequence (P04626 23-1255): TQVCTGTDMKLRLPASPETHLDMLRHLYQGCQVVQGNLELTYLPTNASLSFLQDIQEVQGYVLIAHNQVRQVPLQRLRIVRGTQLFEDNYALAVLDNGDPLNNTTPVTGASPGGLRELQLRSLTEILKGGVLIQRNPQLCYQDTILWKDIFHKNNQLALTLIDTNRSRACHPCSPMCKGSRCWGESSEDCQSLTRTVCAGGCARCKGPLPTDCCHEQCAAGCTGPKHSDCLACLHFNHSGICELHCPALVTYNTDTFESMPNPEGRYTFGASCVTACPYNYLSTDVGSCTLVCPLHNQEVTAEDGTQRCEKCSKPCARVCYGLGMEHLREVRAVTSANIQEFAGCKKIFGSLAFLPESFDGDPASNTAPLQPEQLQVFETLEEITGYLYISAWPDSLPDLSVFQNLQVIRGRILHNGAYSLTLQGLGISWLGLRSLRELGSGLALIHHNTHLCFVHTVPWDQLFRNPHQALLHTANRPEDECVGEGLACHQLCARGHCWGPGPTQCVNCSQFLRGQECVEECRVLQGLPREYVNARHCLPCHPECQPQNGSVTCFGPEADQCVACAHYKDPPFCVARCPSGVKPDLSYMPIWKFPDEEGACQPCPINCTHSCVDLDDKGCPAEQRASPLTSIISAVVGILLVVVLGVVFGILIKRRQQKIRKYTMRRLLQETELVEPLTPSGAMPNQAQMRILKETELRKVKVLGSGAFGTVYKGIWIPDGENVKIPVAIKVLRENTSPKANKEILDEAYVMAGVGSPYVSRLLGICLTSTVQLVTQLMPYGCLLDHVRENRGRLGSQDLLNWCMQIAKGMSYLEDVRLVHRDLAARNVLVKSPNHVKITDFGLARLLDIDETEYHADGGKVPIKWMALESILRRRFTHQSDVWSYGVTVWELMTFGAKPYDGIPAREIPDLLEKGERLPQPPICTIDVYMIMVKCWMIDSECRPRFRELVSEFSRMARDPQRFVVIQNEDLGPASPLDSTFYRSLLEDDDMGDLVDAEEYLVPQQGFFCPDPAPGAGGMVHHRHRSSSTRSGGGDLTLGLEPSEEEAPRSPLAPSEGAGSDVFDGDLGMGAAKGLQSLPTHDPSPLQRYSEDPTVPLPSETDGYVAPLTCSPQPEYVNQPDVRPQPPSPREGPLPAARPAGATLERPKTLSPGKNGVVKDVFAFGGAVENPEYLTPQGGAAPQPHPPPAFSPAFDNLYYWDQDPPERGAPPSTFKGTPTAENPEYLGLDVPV
T11 sequence (P00533 25-1210): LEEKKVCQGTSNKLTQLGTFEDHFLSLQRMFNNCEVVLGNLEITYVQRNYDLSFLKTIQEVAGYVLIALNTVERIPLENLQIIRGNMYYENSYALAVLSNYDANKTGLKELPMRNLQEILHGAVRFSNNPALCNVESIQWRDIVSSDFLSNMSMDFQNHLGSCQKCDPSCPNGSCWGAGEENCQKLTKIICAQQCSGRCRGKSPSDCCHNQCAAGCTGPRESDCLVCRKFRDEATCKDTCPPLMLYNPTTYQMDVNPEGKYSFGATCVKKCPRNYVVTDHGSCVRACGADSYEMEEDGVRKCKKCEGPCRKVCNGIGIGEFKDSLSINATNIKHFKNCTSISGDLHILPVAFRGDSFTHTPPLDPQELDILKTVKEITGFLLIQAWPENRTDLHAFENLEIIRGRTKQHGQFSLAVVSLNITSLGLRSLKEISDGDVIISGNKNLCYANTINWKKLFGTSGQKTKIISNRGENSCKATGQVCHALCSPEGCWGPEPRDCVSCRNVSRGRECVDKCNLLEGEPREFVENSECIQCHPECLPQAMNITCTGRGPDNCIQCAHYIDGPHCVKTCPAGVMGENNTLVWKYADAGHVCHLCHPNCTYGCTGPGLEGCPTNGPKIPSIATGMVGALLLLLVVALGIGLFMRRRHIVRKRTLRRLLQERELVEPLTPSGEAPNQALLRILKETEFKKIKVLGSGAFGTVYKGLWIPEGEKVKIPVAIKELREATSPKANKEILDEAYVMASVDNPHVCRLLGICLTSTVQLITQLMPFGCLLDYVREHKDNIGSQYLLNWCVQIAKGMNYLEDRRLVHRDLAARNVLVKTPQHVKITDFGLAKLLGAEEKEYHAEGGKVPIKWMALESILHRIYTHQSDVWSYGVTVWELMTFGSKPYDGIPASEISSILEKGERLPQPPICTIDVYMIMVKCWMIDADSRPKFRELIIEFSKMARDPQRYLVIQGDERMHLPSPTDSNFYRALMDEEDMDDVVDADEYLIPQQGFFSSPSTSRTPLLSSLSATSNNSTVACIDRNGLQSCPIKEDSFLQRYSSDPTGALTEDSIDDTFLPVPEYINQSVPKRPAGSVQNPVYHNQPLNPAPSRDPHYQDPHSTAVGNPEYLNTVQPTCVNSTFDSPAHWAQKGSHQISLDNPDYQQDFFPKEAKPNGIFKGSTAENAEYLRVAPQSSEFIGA
T8 sequence (P00533 with tags, fused parts or gaps INS770SVD): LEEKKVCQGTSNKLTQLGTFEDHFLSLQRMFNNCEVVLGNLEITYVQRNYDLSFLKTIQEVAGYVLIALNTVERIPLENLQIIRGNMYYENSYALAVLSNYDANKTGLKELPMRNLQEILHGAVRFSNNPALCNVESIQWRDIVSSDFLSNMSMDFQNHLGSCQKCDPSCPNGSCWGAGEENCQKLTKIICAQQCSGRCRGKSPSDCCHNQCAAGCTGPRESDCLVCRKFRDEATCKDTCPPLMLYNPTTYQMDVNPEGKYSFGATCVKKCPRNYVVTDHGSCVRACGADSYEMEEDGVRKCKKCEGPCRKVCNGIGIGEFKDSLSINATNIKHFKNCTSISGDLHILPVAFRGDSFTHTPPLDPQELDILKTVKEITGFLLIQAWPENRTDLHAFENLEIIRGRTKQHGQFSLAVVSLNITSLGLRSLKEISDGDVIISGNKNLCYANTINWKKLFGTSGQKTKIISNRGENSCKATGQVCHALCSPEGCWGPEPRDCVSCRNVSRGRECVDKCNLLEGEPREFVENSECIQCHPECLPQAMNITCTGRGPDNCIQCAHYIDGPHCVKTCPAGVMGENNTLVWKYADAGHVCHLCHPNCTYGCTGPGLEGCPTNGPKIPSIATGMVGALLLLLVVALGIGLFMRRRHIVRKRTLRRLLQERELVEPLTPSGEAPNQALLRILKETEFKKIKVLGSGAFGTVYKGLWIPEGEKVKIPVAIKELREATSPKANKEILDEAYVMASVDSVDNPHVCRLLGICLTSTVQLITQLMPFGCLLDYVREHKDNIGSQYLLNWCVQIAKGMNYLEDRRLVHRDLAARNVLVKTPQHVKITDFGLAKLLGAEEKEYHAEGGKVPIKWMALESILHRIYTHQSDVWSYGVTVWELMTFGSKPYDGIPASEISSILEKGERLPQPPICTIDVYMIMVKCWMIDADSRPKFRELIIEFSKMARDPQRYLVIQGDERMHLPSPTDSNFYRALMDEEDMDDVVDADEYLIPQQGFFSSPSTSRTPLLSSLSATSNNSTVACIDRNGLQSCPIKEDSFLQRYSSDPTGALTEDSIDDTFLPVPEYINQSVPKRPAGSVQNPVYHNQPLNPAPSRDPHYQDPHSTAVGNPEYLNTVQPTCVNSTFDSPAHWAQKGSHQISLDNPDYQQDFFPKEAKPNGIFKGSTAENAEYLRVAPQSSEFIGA

Row | Structure (SMILES) | EC50 [1] [nM] | EC50 ([2]; Table 9 key) [nM] | EC50 [3] [nM] | EC50 ([4]; Table 9 key) [nM] | EC50 [5] [nM] | EC50 [6] [nM] | EC50 ([7]; Table 9 key) [nM] | EC50 [8] [nM] | EC50 [9] [nM] | EC50 [10] [nM] | EC50 [11] [nM] | EC50 [12] [nM] | EC50 ([2]; Table 10 key) [nM] | EC50 ([4]; Table 10 key) [nM] | EC50 ([7]; Table 10 key) [nM]
1 | C=CC(=O)N1CCCC(n2c(=O)c(Oc3ccc(F)cc3F)cc3cnc(Nc4cnn(C)c4)nc32)CC1 (stereo not drawn) [Compound 24] | < 100 | 100 to 250 | 200 to 600 | < 100 | < 200 | < 200 | < 100 | < 200 | 200 to 600 | < 200 | < 200 | < 100 |  |  | 
2 | C=CC(=O)Nc1cccc(-n2c(=O)c(Oc3ccc(F)cc3)cc3cnc(Nc4cnn(C)c4)nc32)c1 [Compound 1, N-(3-(6-(4-fluorophenoxy)-2-((1-methyl-1H-pyrazol-4-yl)amino)-7-oxopyrido[2,3-d]pyrimidin-8(7H)-yl)phenyl)acrylamide] | < 100 | 100 to 250 | < 200 | < 100 | < 200 | < 200 | < 100 | < 200 | < 200 | < 200 | < 200 | < 100 |  |  | 
3 | C=CC(=O)Nc1cc(Nc2ncc3cc(Oc4ccc(F)cc4F)c(=O)n(C)c3n2)c(OC)cc1N(C)CCN(C)C [Compound 29, N-(5-((6-(2,4-difluorophenoxy)-8-methyl-7-oxo-7,8-dihydropyrido[2,3-d]pyrimidin-2-yl)amino)-2-((2-(dimethylamino)ethyl)(methyl)amino)-4-methoxyphenyl)acrylamide] | < 100 | < 100 | < 200 | < 100 | < 200 | < 200 | < 100 | < 200 | < 200 | < 200 | < 200 | < 100 |  |  | 
4 | C=CC(=O)Nc1cccc(-n2c(=O)c(Oc3ccc(F)cc3F)cc3cnc(Nc4cn(C)nc4OCC)nc32)c1 [Compound 8] | < 100 | < 100 | < 200 | < 100 | < 200 | < 200 | < 100 | < 200 | < 200 | < 200 | < 200 | < 100 |  |  | 
5 | CN(C)C/C=C/C(=O)Nc1cccc(-n2c(=O)c(Oc3ccc(F)cc3F)cc3cnc(Nc4cnn(C)c4)nc32)c1 [Compound 10] | 250 to 500 | 250 to 500 | 600 to 1000 | < 100 | < 200 | 200 to 600 | < 100 | 200 to 600 | 200 to 600 | < 200 | 200 to 600 | < 100 |  |  | 
6 | C=CC(=O)NC1CCCC(n2c(=O)c(Oc3ccc(F)cc3F)cc3cnc(Nc4cnn(C)c4)nc32)C1 (stereo not drawn) [Compound 23] | < 100 | 100 to 250 | 200 to 600 | < 100 | < 200 | < 200 | < 100 | < 200 | < 200 | < 200 | < 200 | < 100 |  |  | 
7 | C=CC(=O)Nc1cc(Nc2ncc3cc(Oc4ccc(F)cc4F)c(=O)n(C)c3n2)ncc1N(C)CCN(C)C [Compound 105] |  |  | > 1000 |  |  | > 1000 |  | > 1000 |  |  | 200 to 600 |  | 600 to 1000 | 200 to 600 | 600 to 1000
8 | C=CC(=O)Nc1cc(Nc2ncc3cc(Nc4ccc(F)cc4F)c(=O)n(C)c3n2)c(OC)cc1OCCN(C)C [Compound 142] |  | 100 to 250 | 600 to 1000 | < 100 |  | < 200 | < 100 | < 200 |  |  | < 200 |  |  |  | 
9 | C=CC(=O)Nc1cccc(-n2c(=O)c(Oc3c(F)cc(F)cc3F)cc3cnc(Nc4cnn(C)c4)nc32)c1 [Compound 82] |  |  | < 200 |  |  | < 200 |  | < 200 |  |  | < 200 |  | < 200 | < 200 | < 200
10 | CC#CC(=O)Nc1cc(Nc2ncc3cc(Oc4ccc(F)cc4F)c(=O)n(C)c3n2)c(OC)cc1N(C)CCN(C)C [Compound 125] |  |  | 600 to 1000 |  |  | < 200 |  | < 200 |  |  | < 200 |  | 200 to 600 | < 200 | < 200
11 | C=CC(=O)Nc1cc(Nc2ncc3cc(Oc4ccc(F)cc4Cl)c(=O)n(C)c3n2)c(OC)cc1N(C)CCN(C)C [Compound 134] |  |  | 200 to 600 |  |  | < 200 |  | < 200 |  |  | < 200 |  | < 200 | < 200 | < 200
12 | CCC(=O)Nc1cc(Nc2ncc3cc(Oc4ccc(F)cc4F)c(=O)n(C)c3n2)c(OC)cc1N(C)CCN(C)C [Compound 111] |  |  | > 1000 |  |  | > 1000 |  | > 1000 |  |  | > 1000 |  | > 1000 | > 1000 | > 1000
13 | C=CC(=O)Nc1cc(Nc2ncc3cc(Oc4ccc(F)cc4F)c(N)nc3n2)c(OC)cc1N(C)CCN(C)C [Compound 140] |  | 250 to 500 | 600 to 1000 | < 100 |  | 200 to 600 | < 100 | 200 to 600 |  |  | < 200 |  |  |  | 
14 | C=CC(=O)N1C[C@H](Cn2c(=O)c(Oc3ccc(F)cc3F)cc3cnc(Nc4cnn(C)c4)nc32)[C@@H](OC)C1 [Compound 102] |  |  | 200 to 600 |  |  | < 200 |  | < 200 |  |  | < 200 |  | < 200 | < 200 | < 200
15 | C=CC(=O)Nc1cc(Nc2ncc3cc(Oc4cc(F)c(F)cc4F)c(=O)n(C)c3n2)c(OC)cc1N(C)CCN(C)C [Compound 135] |  |  | 200 to 600 |  |  | < 200 |  | < 200 |  |  | < 200 |  | < 200 | < 200 | < 200
